Experimental data from US5703205A, “Laminin a chain polypeptides from the amino terminal golbular domain” (Regents of the University of Minnesota, priority 1993, dated 1997).

Key:
Format in all cases: cell-based
[1] = test system: human colon carcinoma (K12C); test: Direct cell adhesion to coated surfaces (Table II); conditions: wells coated with 5 μg, 2 hours, % of total cells added
Excerpt: (§1) The human fibrosarcoma HT-1080 cell line was obtained from the ATCC. The murine melanoma K-1735-C10 (low metastatic) and K-1735-M4 (high metastatic) cell lines, murine UV-2237-MM fibrosarcoma cell line, human renal carcinoma SN12 PM-6 (high metastatic) cell line, and human colon carcinoma KM12 C (low metastatic) and KM12 SM (high metastatic) cell lines were originally provided by Dr. I. J. Fidler (M.D., Anderson Hospital, University of Texas Health Sciences Center, Houston, Tex.). The MM fibrosarcoma cell line was maintained in DME (GIBCO Laboratories, Grand Island, N.Y.) containing 10% FBS, the murine melanomas were maintained in DMEM containing 10% calf serum, the human fibrosarcoma cells were maintained in EMEM containing 10% heat inactivated FBS, and the human renal and colon carcinoma cells were grown in EMEM containing 10% FBS, vitamins, and 1 mM sodium pyruvate. Cells were passaged for 4 to 5 weeks and then replaced from frozen stocks of early passage cells to minimize phenotypic drift. Cells were maintained at 37° C. in a humidified incubator containing 5% CO2.
(§2) The direct adhesion of cells to protein or peptide coated surfaces was performed as described in Skubitz et al., Exp. Cell Res., 173, 349-360 (1987) and Charonis et al., supra (1988). Briefly, radiolabeled cells were added to 96-well microtiter plates coated with various concentrations of synthetic peptides, laminin, or BSA (0.02 μg/well-50 μg/well from 50 μl solutions) for various lengths of time. After the incubation period, loosely or nonadherent cells were removed by washing the wells three times. Adherent cells weresolubilized and quantitated in a scintillation counter. More specifically, cultures of cells which were 60-80% confluent were metabolically labeled for 24 hours with the addition of 3 μCi/ml of ^3 H-td (tritiated thymidine). On the day of the assay, the cells were harvested by trypsinization, the trypsin was inhibited by the addition of serum, and the cells were washed free of this mixture and resuspended in DMEM buffered with HEPES at pH 7.2. The adhesion medium also contained 2 mg/ml BSA. The cells were adjusted to a concentration of 3-4×10^4/ ml, and 100 μl of this cell suspension was added to the wells. The assay mixture was then incubated at 37° C. for 120 minutes. At the end of the incubation, the wells were washed with warm DMEM/Hepes containing 2 mg/ml BSA, and the adherent population was solubilized with 0.5N NaOH contained 1% SDS. The solubilized cells were then quantitated using a liquid scintillation counter.
(§3) Microtiter wells were adsorbed with peptide R18, laminin, or BSA and a variety of tumor cell lines were tested for the ability to adhere to the ligands. The six different tumor cell lines selected for this study were of murine or human origin and, in most cases, of either high or low metastatic capacity. As reported in Table II, peptide R18 was also capable of promoting the adhesion of all six cell lines.
(§4) *Microtiter wells were coated with 5 μg of the peptide or proteins and […]

[2] = test system: human colon carcinoma (KI2SM); test: Direct cell adhesion to coated surfaces (Table II); conditions: wells coated with 5 μg, 2 hours, % of total cells added
Excerpt: as §1, §2, §3, §4

[3] = test system: human renal carcinoma (SN12 PM6); test: Direct cell adhesion to coated surfaces (Table II); conditions: wells coated with 5 μg, 2 hours, % of total cells added
Excerpt: as §1, §2, §3, §4

murine fibrosarcoma (MM) = test: Direct cell adhesion to coated surfaces (Table II); conditions: wells coated with 5 μg, 2 hours, % of total cells added
Excerpt: as §1, §2, §3, §4

murine melanoma (C10) = test: Direct cell adhesion to coated surfaces (Table II); conditions: wells coated with 5 μg, 2 hours, % of total cells added
Excerpt: as §1, §2, §3, §4

murine melanoma (M4) = test: Direct cell adhesion to coated surfaces (Table II); conditions: wells coated with 5 μg, 2 hours, % of total cells added
Excerpt: as §1, §2, §3, §4

[4] = test system: HT-1080 human fibrosarcoma cells; test: Cell spreading assay on coated surfaces; conditions: for Cells Spread (%) / Surface Area Occupied by a Cell: wells coated with 300 μl at 100 μg/ml, 2 1/2 hour incubation
Experimental: Spreading of the adherent cells was evaluated by performing adhesion assays similar to those described above. Twenty-four well tissue culture plates (Becton Dickinson and Co., Lincoln Park, N.J.) were coated with 300 μl of laminin, synthetic peptides, or BSA at 100 μg/ml, then blocked with 2 mg/ml BSA in PBS. Three hundred microliters of a cell suspension at 5×10^4 cells/ml was added to each well, and after a 21/2 hour incubation, nonadherent cells were aspirated out of the wells. Adherent cells were fixed with 2% glutaraldehyde in PBS at 23° C. for one hour. The glutaraldehyde was then removed and the cells were stained by two different techniques. For photographic purposes, the cells were stained with Diff-Quik Solution I (American Scientific Products, McGaw Park, Ill.) for 10 minutes at 23° C. Solution I was removed, then Diff-Quik Solution II was added and the cells were stained for another 10 minutes at 23° C. Wells were washed with PBS, then representative cells were photographed with a Nikon DIAPHOT inverted phase microscope using Panatomic X Film ASA32 (Eastman Kodak, Rochester, N.Y.). Adherent cells to be quantitated for spreading were stained overnight at 23° C. with 500 μl of a solution containing 0.12% (w/v) Coomassie Brilliant Blue R (Sigma Chemical Co.), 5% (v/v) acetic acid, and 50% (v/v) ethanol. Wells were washed three times with 500 μl of PBS and cell spreading was then quantitated by measuring the average surface area occupied by a cell using an Opti-Max Image Analyzer. Thirty cells were measured per well; each experiment was done in quadruplicate and repeated three times. Cells spread the best on peptide R17 and R18 and occupy an area of ~30% of that seen for cells on laminin-coated surfaces. On surfaces coated with peptides R19, R20, and R32, less cell spreading was observed; cells occupied an area ~20% of that seen on intact laminin. Cell spreading on ovalbumin (negative control) was less than 10% of that seen on laminin but the cells were barely adherent under these last conditions.

[5] = test system: HT-1080 human fibrosarcoma cells; test: Direct adhesion of radiolabeled cells to peptide or protein coated microtiter wells; conditions: increasing concentrations adsorbed, up to 5 μg/well; 120 minutes
Experimental: FIG. 3 reports results in microtiter wells adsorbed with increasing concentrations of HPLC-purified peptides R17 (.smallcircle.) R18 (.quadrature.), or R19 (Δ), R20 (.circle-solid.), R32 (.box-solid.), laminin (.tangle-solidup.), or ovalbumin (.diamond.) and radiolabeled HT-1080 human fibrosarcoma cells that were allowed to adhere for 2 hours after being released from flasks with EDTA/trypsin. Each value represents the mean of four separate determinations, and the SEM was less than 10% in each case.
The direct adhesion of cells to protein or peptide coated surfaces was performed as described in Skubitz et al., Exp. Cell Res., 173, 349-360 (1987) and Charonis et al., supra (1988). Briefly, radiolabeled cells were added to 96-well microtiter plates coated with various concentrations of synthetic peptides, laminin, or BSA (0.02 μg/well-50 μg/well from 50 μl solutions) for various lengths of time. After the incubation period, loosely or nonadherent cells were removed by washing the wells three times. Adherent cells weresolubilized and quantitated in a scintillation counter. […] The solubilized cells were then quantitated using a liquid scintillation counter.
In this case, increasing concentrations of the five synthetic peptides were adsorbed to microtiter wells. Radiolabeled HT-1080 human fibrosarcoma cells were incubated in the wells for 120 minutes and the adhesion of cells was quantitated. […]

Substance	Cell Adhesion (%) to Coated Surfaces [1] [%]	Cell Adhesion (%) to Coated Surfaces [2] [%]	Cell Adhesion (%) to Coated Surfaces [3] [%]	Cell Adhesion (%) to Coated Surfaces (murine fibrosarcoma (MM)) [%]	Cell Adhesion (%) to Coated Surfaces (murine melanoma (C10)) [%]	Cell Adhesion (%) to Coated Surfaces (murine melanoma (M4)) [%]	Cells Spread (%) [4] [%]	Surface Area Occupied by a Cell [4] [um^2]	cell adhesion to coated wells (in words) [5]	area occupied by cells relative to that on laminin-coated surfaces ([4]; HT-1080 cell spreading, relative to intact laminin)
Laminin	25	36	40	43	80	50	95	611 ± 79	–	–
Ovalbumin: negative control protein	–	–	–	–	–	–	0	71 ± 41	no cell adhesion was observed	less than 10%
